Test systems include A549 NSCLC; HOP-62 NSCLC; HS 578T breast; MALME-3M melanoma; MDA-MB-435; MOLT-4 leukemia; OVCAR-5 ovarian; SK-MEL-2 melanoma; SNB-75 CNS; T-47D breast; U251 CNS.
Test in all cases: growth of human tumour cells (NCI), 48 h

Several values for one entry are separate records, joined by “and”; a condition that tells them apart may be missing. Equal entries are not always repeated.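 Dose response: 5 concentrations. Exposure: 48 h. Format: 96-well plates. Endpoint: linear interpolation; highest concentration if not reached. The concentration for 50% growth inhibition is given as GI50. The concentration for full growth arrest is given as TGI.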

Consider `C[C@@H]1C(=O)CC2(O)[C@@]13C[C@@H](OC(=O)[C@@H]3O)[C@@H](C)[C@@]21COC1=O` (some centres undefined), for which the TGI in the experiment with A549 NSCLC, with HOP-62 NSCLC, in the experiment on HS 578T breast, with MALME-3M melanoma, in the experiment with MDA-MB-435 and in the experiment with MOLT-4 leukemia was above 100 µM in each case. Moreover, the TGI in the experiment on OVCAR-5 ovarian, with SK-MEL-2 melanoma, in the experiment on SNB-75 CNS, in the experiment with T-47D breast and in the experiment on U251 CNS was above 100 µM each time.

Regarding `COCC(=O)OC1CCn2c1nc1c2C(=O)C(C)=C(NC(C)=O)C1=O` (centres undefined), the TGI with A549 NSCLC was 47.8 µM; in the experiment with HOP-62 NSCLC, 41.1 µM; in the experiment on HS 578T breast, 16.8 µM; in the experiment on MALME-3M melanoma, 4.94 µM and 6.11 µM; with MDA-MB-435, 3.69 µM and 3.42 µM; in the experiment with MOLT-4 leukemia, 6.36 µM and 4.94 µM. For the same compound, the TGI was 21.6 µM in the experiment with OVCAR-5 ovarian; 13.5 µM with SK-MEL-2 melanoma; 14.8 µM with SNB-75 CNS; 5.51 µM and 2.68 µM in the experiment with T-47D breast; 17.4 µM in the experiment on U251 CNS. In addition, the GI50 was 2.37 µM in the experiment on MALME-3M melanoma; 2.17 µM with MDA-MB-435; 0.772 µM with MOLT-4 leukemia; 5.91 µM in the experiment on OVCAR-5 ovarian; 5.34 µM with SK-MEL-2 melanoma; 1.03 µM in the experiment with T-47D breast. In addition, the GI50 in the experiment with U251 CNS was 4.36 µM.

Turning to `COC(=O)C1=C(C(=O)OC)C2(C)CCC(=O)C1O2` (centres undefined), the TGI with A549 NSCLC, in the experiment on HOP-62 NSCLC, with HS 578T breast, with MALME-3M melanoma, in the experiment on MDA-MB-435 and in the experiment with MOLT-4 leukemia was above 10 µM throughout. Also, the TGI with OVCAR-5 ovarian, with SK-MEL-2 melanoma, in the experiment with SNB-75 CNS, in the experiment with T-47D breast and in the experiment with U251 CNS was above 10 µM in each case.

`COC(=O)C(CCSC)NC(=O)CSc1nnc(COc2ccc(Cl)cc2)n1-c1ccccc1` (centres undefined): the TGI with A549 NSCLC is above 70.8 µM; with HOP-62 NSCLC, 23.8 µM; with HS 578T breast, 55.6 µM; in the experiment with MALME-3M melanoma it was 37.1 µM; in the experiment on MDA-MB-435 it was 34.3 µM; with MOLT-4 leukemia, 43 µM. Further, the TGI in the experiment on OVCAR-5 ovarian is 38.7 µM; in the experiment with SK-MEL-2 melanoma, 30.6 µM; in the experiment on SNB-75 CNS, 33.7 µM; in the experiment with T-47D breast, above 78.7 µM; with U251 CNS, 30.9 µM.

With `Cc1ccc2c(c1)C(=O)/C(=C\c1ccc(Cl)cc1)CCS2(=O)=O`, the TGI is above 58.8 µM with A549 NSCLC; above 47.2 µM in the experiment with HOP-62 NSCLC; above 31.5 µM in the experiment on HS 578T breast; 6.42 µM in the experiment with MALME-3M melanoma; 23.3 µM with MDA-MB-435; 9.79 µM in the experiment on MOLT-4 leukemia. Moreover, the TGI was above 42.5 µM with OVCAR-5 ovarian; 61 µM with SK-MEL-2 melanoma; 18.4 µM in the experiment with SNB-75 CNS; 9.4 µM with T-47D breast; 9.09 µM with U251 CNS.

`CCOC(=O)Cc1nn2c(=O)cc(C)nc2s1`: the TGI in the experiment with A549 NSCLC, in the experiment with HOP-62 NSCLC, with HS 578T breast, in the experiment with MALME-3M melanoma, in the experiment with MDA-MB-435 and with MOLT-4 leukemia was above 100 µM each time. Also, the TGI in the experiment on OVCAR-5 ovarian, with SK-MEL-2 melanoma, with SNB-75 CNS, in the experiment on T-47D breast and in the experiment on U251 CNS was above 100 µM throughout.

As for `CNc1ccc2c(c1)Cc1ccccc1-2`, the TGI in the experiment with A549 NSCLC was 56.2 µM; with HOP-62 NSCLC, above 100 µM; in the experiment with HS 578T breast, 91.5 µM; in the experiment with MALME-3M melanoma, above 100 µM; with MDA-MB-435, 69.3 µM; in the experiment on MOLT-4 leukemia, 98.7 µM. The TGI with OVCAR-5 ovarian, in the experiment with SK-MEL-2 melanoma, with SNB-75 CNS, in the experiment on T-47D breast and in the experiment with U251 CNS was above 100 µM in each case.

Consider `Cc1ncc([N+](=O)[O-])n1CCNC(=O)CCCCn1ccnc1[N+](=O)[O-]`, for which the TGI in the experiment with A549 NSCLC, with HOP-62 NSCLC, with HS 578T breast, in the experiment with MALME-3M melanoma, with MDA-MB-435 and in the experiment on MOLT-4 leukemia was above 100 µM each time. In addition, the TGI with OVCAR-5 ovarian, in the experiment on SK-MEL-2 melanoma, with SNB-75 CNS, in the experiment on T-47D breast and with U251 CNS was above 100 µM throughout.

With `Cc1cccc(NC(Nc2cccc(C)c2)=C(C(Cl)=C(Cl)Cl)[N+](=O)[O-])c1`, the TGI with A549 NSCLC is above 68 µM; in the experiment with HOP-62 NSCLC it was 41.7 µM; with HS 578T breast it was 11.2 µM; in the experiment on MALME-3M melanoma it was 29 µM; in the experiment on MDA-MB-435, 28.7 µM; in the experiment with MOLT-4 leukemia, above 20 µM. For the same compound, the TGI with OVCAR-5 ovarian is above 72.1 µM; in the experiment on SK-MEL-2 melanoma, 48.5 µM; in the experiment with SNB-75 CNS, above 68.6 µM; in the experiment on T-47D breast, above 53 µM; in the experiment with U251 CNS, 36.3 µM.

Consider `CCN(C(=O)N[C@H](C(=O)N[C@@H](C)C(=O)OC)C(C)C)c1ccccc1`, for which the TGI is above 100 µM with A549 NSCLC; above 100 µM in the experiment on HOP-62 NSCLC; above 100 µM in the experiment on HS 578T breast; 55.9 µM in the experiment with MALME-3M melanoma; 52.2 µM with MDA-MB-435; above 100 µM with MOLT-4 leukemia. In addition, the TGI was above 100 µM with OVCAR-5 ovarian; 78.3 µM with SK-MEL-2 melanoma; above 100 µM with SNB-75 CNS; above 100 µM with T-47D breast; 86.6 µM in the experiment on U251 CNS.

Consider `COC(=O)C1=C(C)N2[C@H](C(=O)O)CS[C@@]2(C)[C@H](C(=O)OC)[C@H]1c1cccc([N+](=O)[O-])c1`, for which the TGI with A549 NSCLC, with HOP-62 NSCLC, in the experiment with HS 578T breast, with MALME-3M melanoma, with MDA-MB-435 and in the experiment on MOLT-4 leukemia was above 100 µM each time. For the same compound, the TGI with OVCAR-5 ovarian, in the experiment with SK-MEL-2 melanoma, in the experiment with SNB-75 CNS, with T-47D breast and in the experiment with U251 CNS was above 100 µM each time.

Take `Nc1n[nH]c2ccccc12`: the TGI with A549 NSCLC, in the experiment on HOP-62 NSCLC, with HS 578T breast, in the experiment on MALME-3M melanoma, in the experiment with MDA-MB-435 and in the experiment on MOLT-4 leukemia was above 100 µM throughout. The TGI in the experiment on OVCAR-5 ovarian, in the experiment with SK-MEL-2 melanoma, in the experiment with SNB-75 CNS, with T-47D breast and with U251 CNS was above 100 µM each time.
